Reference: patent US20060089395A1, “Nf-kb activation inhibitors” (priority 2002, published 2006)
Entries after “also recorded” stand apart in the source; their conditions may differ. Read-outs that look alike come from different tables or passages of the source.

Key:
[1] = system: NF-κ B; assay: Inhibitory activity of NF-κ B activation, luciferase reporter assay in HepG2 under TNF-α stimulation; assay type: cell-based, human
Method in brief: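 Readout is firefly luciferase luminescence, expressed as inhibition versus compound-free wells. Before this, HepG2 cells carrying a transiently transfected 5×NF-κB-site luciferase plasmid (6–24 h post-transfection) received test compound plus TNF-α (40 ng/ml) for 4 h.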

[2] = system: Vascular smooth muscle cells of normal coronary artery (Cryo CASMC); assay: Inhibitory test against proliferation of vascular smooth muscle cells of normal coronary artery under proliferation stimulation (MTS assay); assay type: cell-based; conditions: FGF and EGF stimulation, 72 hours
Method: Vascular smooth muscle cells of normal coronary artery (Cryo CASMC) were cultured for 2 hours in the presence or absence of a test substance in DMEM medium containing 0.5% of FBS and insulin (5 u g/ml). Then, FGF and EGF were added for proliferation stimulation. The mixture was cultured for 72 hours and proliferation of the cells were measured by the MTS assay. The results aree shown in the following

[3] = system: IL-6; assay: Inhibition of IL-6 production by TNFα stimulation in synovial fibroblasts derived from a rheumatoid patient (ELISA); assay type: cell-based, human; conditions: for IC50: synovial fibroblasts, 10 ng/ml TNFα, 3 days, read-out: Inhibition against Mediator Release IC50(nM) IL-6
Method: (§1) Synovial fibroblasts (Human Synoviocyte (RA-Positive), Toyobo, T4040-05) were cultured for 3 days in a medium containing 10 ng/ml of TNFα and a test compound. IL-6 and IL-8 in the supernatant were measured by the ELISA method, and PGE2 (prostaglandin E2) was measured by the EIA method.

[4] = system: PGE2; assay: Inhibition of PGE2 production by TNFα stimulation in synovial fibroblasts derived from a rheumatoid patient (EIA); assay type: cell-based, human; conditions: for IC50: synovial fibroblasts, 10 ng/ml TNFα, 3 days, read-out: Inhibition against Mediator Release IC50(nM) PGE2
Method: as §1

[5] = system: type II collagen induced arthritis; assay: Inhibitory test against type II collagen induced arthritis in mice; assay type: in vivo, Balb/c mice; conditions: 10 mg/kg intraperitoneally once in two days; day 44; score of the control = 100%
Method: Balb/c mice were immunized with heterologous type II collagen and Freund's complete adjuvant by subcutaneous or intraperitoneal injection. At 21 days after the treatment, these mice were immunized again with heterologous type II collagen and Freund's incomplete adjuvant by subcutaneous or intraperitoneal injection to develop arthritis.
A test substance suspended in an appropriate diluent or the diluent alone (negative control) was administered intraperitoneally once in two days from the day of the first immunization, and as for arthritis developed after the second immunization, clinical symptoms of each ankle joint of all foots were recorded day after day as numerous scores. When the score of the control measured on day 44 after administration of 10 mg/kg of the medicament of the present invention was expresses as 100%, rates of exacerbation (%) of the clinical symptoms of arthritis were 37.5 (Compound No. 4), 76.5 (Compound No. 90), 56.2 (Compound No. 11), 64.0 (Compound No. 88), and 0.0 (Compound No. 83).

[6] = system: IL-8; assay: Inhibition of IL-8 production by TNFα stimulation in synovial fibroblasts derived from a rheumatoid patient (ELISA); assay type: cell-based, human; conditions: for IC50: synovial fibroblasts, 10 ng/ml TNFα, 3 days, read-out: Inhibition against Mediator Release IC50(nM) IL-8
Method: as §1

[7] = system: myocarditis; assay: Rat myocarditis model immunized with pig heart-derived cardiac myosin; assay type: in vivo; conditions: intraperitoneal administration at 10 mg/kg
[8] = system: intestinal ischemic reperfusion-caused hepatopathy; assay: Rat intestinal ischemic reperfusion-caused hepatopathy model; assay type: in vivo; conditions: intraperitoneal administration of 10 mg/kg
[9] = system: myocardial ischemia reperfusion disorder; assay: Inhibitory test against myocardial ischemia reperfusion disorder in rats; assay type: in vivo, rat; conditions: 5 mg/kg intraperitoneally; 24 hours after reperfusion
Method: Left coronary artery of 7 to 9 week-old rat was ligated to induce ischemic state. After 25 minutes, a test substance suspended in an appropriate diluent or the diluent alone (negative control) was intraperitoneally administered, and after 30 minutes, the animal was reperfused. After 24 hours, a rate of necrosis of an ischemic part of the cardiac muscle was measured.

[10] = system: artery abrasion restenosis; assay: Mouse artery abrasion restenosis model; assay type: in vivo; conditions: intraperitoneal administration at 10 mg/kg
[11] = system: Thy-1 nephritis; assay: Rat Thy-1 nephritis model; assay type: in vivo; conditions: intraperitoneal administration of less than 15 mg/kg
[12] = Homo sapiens, 1 μg/mL, HepG2, TNF-α (40 ng/ml), 4 hours, read-out: Inhibitory Ratio of NF-κ B Activation(%) Drug Concentration 1 μg/mL
[13] = Homo sapiens, 10 μg/mL, HepG2, TNF-α (40 ng/ml), 4 hours, read-out: Inhibitory Ratio of NF-κ B Activation(%) Drug Concentration 10 μg/mL
[14] = rheumatic patient-derived synovial fibroblasts under TNFα stimulation

CC(=O)Oc1ccccc1C(=O)Nc1cc(Cl)cc(Cl)c1 [Compound No. 120, 2-acetoxy-N-(3,5-dichlorophenyl)benzamide]
inhibition at 1 µg/mL [1, 12]: 88.6%
inhibition at 10 µg/mL [1, 13]: 97.5%
melting point: 218 to 219 °C

O=C(Nc1cc(C(F)(F)F)ccc1Cl)c1cc(Br)ccc1O [Compound No. 90]
Inhibitory Ratio of NF-κ B Activation(%) Drug Concentration 1 μg/mL ([1]; 1 μg/mL, HepG2, TNF-α (40 ng/ml), 4 hours): 88.9%
Inhibitory Ratio of NF-κ B Activation(%) Drug Concentration 10 μg/mL ([1]; 10 μg/mL, HepG2, TNF-α (40 ng/ml), 4 hours): 94.1%
Inhibitory Ratio of Proliferation(%) Compound Concentration 250 nM [2]: 89.5%
Inhibitory Ratio of Proliferation(%) Compound Concentration 500 nM [2]: 95.2%
inhibition of the production of IL-6 (in words) [3, 14]: potently inhibited; also recorded: strongly inhibited
IC50 [3]: 24 nM
inhibition of the production of PGE2 (in words) [4, 14]: potently inhibited; also recorded: strongly inhibited
IC50 [4]: 38 nM
rates of exacerbation (%) of the clinical symptoms of arthritis [5]: 76.5%
inhibition of the production of IL-8 (in words) [6, 14]: potently inhibited; also recorded: strongly inhibited
IC50 [6]: 373 nM

O=C(Nc1cc(C(F)(F)F)cc(C(F)(F)F)c1)c1cc(C(=O)N2CCC(Cc3ccccc3)CC2)ccc1O [Compound No. 40, N-[3,5-Bis(trifluoromethyl)phenyl]-2-hydroxy-5-(4-benzylpiperidine-1-carbonyl)benzamide]
inhibition at 1 µg/mL [1, 12]: 44.9%
inhibition at 10 µg/mL [1, 13]: 96%
melting point: 179 to 180 °C

O=C(Nc1cc(C(F)(F)F)cc(C(F)(F)F)c1)c1cc(Cl)ccc1O [Compound No.4, N-[3,5-bis(trifluoromethylphenyl)]-5-chloro-2-hydroxybenzamide]
inhibition at 0.1 µg/mL ([1]; Homo sapiens, HepG2, 4 h, 0.1 μg/ml, comparison table, reporter assay, read-out: Inhibitory Ratio of NF-κB Activation (%) 0.1 μg/ml): 60.9%
inhibition at 1 µg/mL ([1]; Homo sapiens, HepG2, 4 h, 1 μg/ml, comparison table, reporter assay, read-out: Inhibitory Ratio of NF-κB Activation (%) 1 μg/ml): 95.7%
inhibition at 10 µg/mL ([1]; Homo sapiens, HepG2, 4 h, 10 μg/ml, comparison table, reporter assay, read-out: Inhibitory Ratio of NF-κB Activation (%) 10 μg/ml): 97.5%
inhibition at 1 µg/mL [1, 12]: 95.7%
inhibition at 10 µg/mL [1, 13]: 97.5%
Inhibitory Ratio of Proliferation(%) Compound Concentration 250 nM [2]: 87.9%
Inhibitory Ratio of Proliferation(%) Compound Concentration 500 nM [2]: 92.2%
inhibition of the onset of myocarditis [7]: significantly also inhibited the onset of myocarditis
TNFα concentration in blood [8]: lowered
endotoxic levels in blood [8]: lowered endotoxic levels
inhibition of hepatopathy [8]: significantly inhibited hepatopathy
IC50 ([3]; Homo sapiens, Fibroblast, 72 h): 294 nM
inhibition of the necrosis of the cardiac muscle in comparison with the control [9]: 60%
inhibition of proliferation of vascular endothelial cells and vascular smooth muscle cells [10]: significantly inhibited proliferation of vascular endothelial cells and vascular smooth muscle cells
IC50 ([4]; Homo sapiens, Fibroblast, 72 h): 388 nM
rates of exacerbation (%) of the clinical symptoms of arthritis [5]: 37.5%
IC50 ([6]; Homo sapiens, Fibroblast, 72 h): 450 nM
renal protective action [11]: exhibited a renal protective action
